Reference: the CheMixHub viscosity set

Assay: xn = mol fraction of the nth substance listed

CCCCCCCCCCCCCCCCCCCCCC + CCCCCCCCCC
viscosity [mPa·s], 101.3 kPa
Conditions | x2 = 0.4 | x2 = 0.5 | x2 = 0.6 | x2 = 0.799
303.2 K | – | – | – | 1.47
313.2 K | 2.93 | 2.53 | 2.05 | 1.24

Clc1cccc2ccccc12 + CCO
viscosity [mPa·s], 101.33 kPa
Conditions | x1 = 0.0773 | x1 = 0.2002 | x1 = 0.3006 | x1 = 0.3989 | x1 = 0.5008 | x1 = 0.5979 | x1 = 0.7026 | x1 = 0.8011 | x1 = 0.9009
298.15 K | 1.238 | 1.455 | 1.63 | 1.779 | 1.953 | 2.11 | 2.298 | 2.47 | 2.655
303.15 K | 1.119 | 1.314 | 1.471 | 1.606 | 1.757 | 1.89 | 2.045 | 2.214 | 2.389
308.15 K | 1.016 | 1.192 | 1.334 | 1.456 | 1.588 | 1.714 | 1.865 | 2.006 | 2.158

COCOCOCOCOC + COCOCOCOC
Conditions | viscosity [mPa·s]
293.15 K, 100 kPa, x2 = 0.12 | 1.895

CCc1ccccc1 + CCC(C)=O
298.15 K, 101.33 kPa
Conditions | viscosity [mPa·s]
x1 = 0.0811 | 0.397
x1 = 0.1608 | 0.416
x1 = 0.2397 | 0.433
x1 = 0.347 | 0.459
x1 = 0.4606 | 0.487
x1 = 0.5818 | 0.516
x1 = 0.7041 | 0.548
x1 = 0.8394 | 0.587

C=CC(=O)OCC + C1CCOC1
viscosity [mPa·s], 101 kPa
Conditions | 293.15 K | 298.15 K | 303.15 K | 308.15 K | 313.15 K | 318.15 K
x2 = 0.0825 | 0.5547 | 0.5211 | 0.4896 | 0.4554 | 0.4158 | 0.3758
x2 = 0.167 | 0.5422 | 0.5102 | 0.4802 | 0.4474 | 0.4096 | 0.3711
x2 = 0.2302 | 0.5338 | 0.503 | 0.4739 | 0.4421 | 0.4055 | 0.3682
x2 = 0.316 | 0.5237 | 0.4945 | 0.4666 | 0.436 | 0.401 | 0.3651
x2 = 0.3892 | 0.5163 | 0.4883 | 0.4613 | 0.4317 | 0.3978 | 0.3631
x2 = 0.4603 | 0.5102 | 0.4832 | 0.457 | 0.4283 | 0.3954 | 0.3617
x2 = 0.5286 | 0.5051 | 0.4791 | 0.4535 | 0.4256 | 0.3938 | 0.361
x2 = 0.5947 | 0.5011 | 0.4759 | 0.4509 | 0.4236 | 0.3926 | 0.3607
x2 = 0.6605 | 0.4979 | 0.4734 | 0.4489 | 0.4222 | 0.392 | 0.3609
x2 = 0.7283 | 0.4954 | 0.4716 | 0.4475 | 0.4213 | 0.3919 | 0.3615
x2 = 0.7874 | 0.4938 | 0.4707 | 0.4468 | 0.421 | 0.3922 | 0.3624
x2 = 0.8689 | 0.4927 | 0.4702 | 0.4466 | 0.4212 | 0.3931 | 0.3642
x2 = 0.936 | 0.4926 | 0.4705 | 0.4471 | 0.4219 | 0.3944 | 0.3661

[Cl-].[Cs+] + O
310.15 K, 101 kPa
Conditions | viscosity [mPa·s]
x1 = 0.000182 | 0.6996
x1 = 0.000907 | 0.7002
x1 = 0.001823 | 0.7061
x1 = 0.002695 | 0.7089
x1 = 0.003679 | 0.7129
x1 = 0.005197 | 0.719
x1 = 0.005988 | 0.7223

COCCOCCOCCOCCOC + CCCO
viscosity [mPa·s], 101 kPa
Conditions | 298.15 K | 308.15 K
x1 = 0.0071 | 1.913 | 1.492
x1 = 0.0125 | 1.9 | 1.485
x1 = 0.0309 | 1.872 | 1.475
x1 = 0.0504 | 1.852 | 1.463
x1 = 0.1024 | 1.841 | 1.467
x1 = 0.1342 | 1.861 | 1.488
x1 = 0.1847 | 1.908 | 1.528
x1 = 0.2444 | 1.989 | 1.593
x1 = 0.2916 | 2.062 | 1.645
x1 = 0.3271 | 2.126 | 1.697
x1 = 0.369 | 2.192 | 1.754
x1 = 0.4386 | 2.31 | 1.84
x1 = 0.4814 | 2.384 | 1.896
x1 = 0.5238 | 2.466 | 1.953
x1 = 0.5941 | 2.577 | 2.041
x1 = 0.6423 | 2.665 | 2.104
x1 = 0.7174 | 2.797 | 2.205
x1 = 0.7487 | 2.855 | 2.247
x1 = 0.7864 | 2.91 | 2.291
x1 = 0.8401 | 3.007 | 2.36

COCCOCCOCCOCCOC + CCCCO
viscosity [mPa·s], 101 kPa
Conditions | 298.15 K | 303.15 K | 308.15 K
x2 = 0.1013 | – | – | 2.525
x2 = 0.7991 | 2.165 | 1.945 | –

Clc1cccc2ccccc12 + CO
viscosity [mPa·s], 101.33 kPa
Conditions | x1 = 0.0998 | x1 = 0.1992 | x1 = 0.302 | x1 = 0.4003 | x1 = 0.4961 | x1 = 0.5978 | x1 = 0.6961 | x1 = 0.801 | x1 = 0.8922
298.15 K | 0.814 | 1.096 | 1.372 | 1.617 | 1.847 | 2.064 | 2.237 | 2.454 | 2.67
303.15 K | 0.75 | 1.002 | 1.249 | 1.468 | 1.672 | 1.863 | 2.012 | 2.197 | 2.385
308.15 K | 0.689 | 0.918 | 1.142 | 1.336 | 1.516 | 1.683 | 1.818 | 1.984 | 2.157

COC(C)(C)C + CO
298.15 K
Conditions | viscosity [mPa·s]
101 kPa, x1 = 0.0512 | 0.547
101 kPa, x1 = 0.0994 | 0.536
101 kPa, x1 = 0.1991 | 0.488
101 kPa, x1 = 0.3011 | 0.455
101 kPa, x1 = 0.4015 | 0.436
101 kPa, x1 = 0.4993 | 0.42
101 kPa, x1 = 0.6001 | 0.402
101 kPa, x1 = 0.7001 | 0.387
101 kPa, x1 = 0.8007 | 0.376
101 kPa, x1 = 0.8998 | 0.366
101 kPa, x1 = 0.9494 | 0.36
101.33 kPa, x1 = 0.0048 | 0.549
101.33 kPa, x1 = 0.0234 | 0.547
101.33 kPa, x1 = 0.0483 | 0.544
101.33 kPa, x1 = 0.0818 | 0.535
101.33 kPa, x1 = 0.1136 | 0.526
101.33 kPa, x1 = 0.1601 | 0.51
101.33 kPa, x1 = 0.1987 | 0.496
101.33 kPa, x1 = 0.2377 | 0.483
101.33 kPa, x1 = 0.2656 | 0.475
101.33 kPa, x1 = 0.3162 | 0.462
101.33 kPa, x1 = 0.3736 | 0.446
101.33 kPa, x1 = 0.4299 | 0.433
101.33 kPa, x1 = 0.481 | 0.42
101.33 kPa, x1 = 0.5141 | 0.413
101.33 kPa, x1 = 0.5796 | 0.399
101.33 kPa, x1 = 0.6163 | 0.394
101.33 kPa, x1 = 0.7002 | 0.382
101.33 kPa, x1 = 0.7768 | 0.37
101.33 kPa, x1 = 0.8313 | 0.363
101.33 kPa, x1 = 0.898 | 0.356
101.33 kPa, x1 = 0.9429 | 0.346

Clc1ccccc1 + Cc1cccc(C)c1
101 kPa
Conditions | viscosity [mPa·s]
293.15 K, x1 = 0.1317 | 0.622
293.15 K, x1 = 0.2304 | 0.64
293.15 K, x1 = 0.3342 | 0.658
293.15 K, x1 = 0.4457 | 0.675
293.15 K, x1 = 0.5734 | 0.692
293.15 K, x1 = 0.6411 | 0.7
293.15 K, x1 = 0.7297 | 0.715
293.15 K, x1 = 0.8241 | 0.725
293.15 K, x1 = 0.9089 | 0.737
298.15 K, x1 = 0.115 | 0.587
298.15 K, x1 = 0.2331 | 0.605
298.15 K, x1 = 0.3319 | 0.621
298.15 K, x1 = 0.465 | 0.641
298.15 K, x1 = 0.565 | 0.655
298.15 K, x1 = 0.6929 | 0.671
298.15 K, x1 = 0.7812 | 0.685
298.15 K, x1 = 0.9072 | 0.697
303.15 K, x1 = 0.1144 | 0.55
303.15 K, x1 = 0.2301 | 0.571
303.15 K, x1 = 0.3415 | 0.585
303.15 K, x1 = 0.4598 | 0.605
303.15 K, x1 = 0.562 | 0.615
303.15 K, x1 = 0.6931 | 0.63
303.15 K, x1 = 0.8136 | 0.645
303.15 K, x1 = 0.904 | 0.651
308.15 K, x2 = 0.0886 | 0.661
308.15 K, x2 = 0.2076 | 0.6411
308.15 K, x2 = 0.3076 | 0.6254
308.15 K, x2 = 0.4147 | 0.6081
308.15 K, x2 = 0.5146 | 0.5927
308.15 K, x2 = 0.6138 | 0.578
308.15 K, x2 = 0.715 | 0.562
308.15 K, x2 = 0.8146 | 0.5474
308.15 K, x2 = 0.9338 | 0.5309
313.15 K, x2 = 0.0886 | 0.6235
313.15 K, x2 = 0.2076 | 0.6053
313.15 K, x2 = 0.3076 | 0.5896
313.15 K, x2 = 0.4147 | 0.5741
313.15 K, x2 = 0.5146 | 0.5604
313.15 K, x2 = 0.6138 | 0.5458
313.15 K, x2 = 0.715 | 0.5302
313.15 K, x2 = 0.8146 | 0.5163
313.15 K, x2 = 0.9338 | 0.5007

COC(C)(C)C + CC(C)O
101 kPa
Conditions | viscosity [mPa·s]
293.15 K, x1 = 0.0305 | 2.145
298.15 K, x1 = 0.0702 | 1.595
303.15 K, x1 = 0.0702 | 1.395
308.15 K, x1 = 0.0914 | 1.145

COCCOCCOCCOCCOC + COC(C)=O
viscosity [mPa·s], 101 kPa
Conditions | 298.15 K | 308.15 K | 318.15 K
x1 = 0.0089 | 0.382 | 0.344 | 0.325
x1 = 0.0206 | 0.404 | 0.364 | 0.339
x1 = 0.0384 | 0.439 | 0.392 | 0.365
x1 = 0.0758 | 0.519 | 0.459 | 0.42
x1 = 0.1174 | 0.61 | 0.539 | 0.484
x1 = 0.1646 | 0.729 | 0.63 | 0.56
x1 = 0.231 | – | 0.773 | 0.677
x1 = 0.2993 | 1.096 | 0.924 | 0.749
x1 = 0.3846 | 1.349 | 1.11 | 0.947
x1 = 0.453 | 1.581 | 1.294 | 1.09
x1 = 0.5398 | 1.854 | 1.503 | 1.254
x1 = 0.6662 | 2.272 | 1.832 | 1.504
x1 = 0.719 | 2.475 | 1.961 | 1.624
x1 = 0.7865 | 2.669 | 2.143 | 1.751
x1 = 0.8413 | 2.902 | 2.278 | 1.858
x1 = 0.8673 | 2.957 | 2.358 | 1.919
x1 = 0.8983 | 3.08 | 2.43 | 1.956
x1 = 0.9205 | 3.127 | 2.478 | 1.991
x1 = 0.9565 | 3.266 | 2.547 | 2.058

CC(O)C(=O)O (stereo unspecified) + C[C@H](N)C(=O)O
101 kPa, x2 = 0.5
Conditions | viscosity [mPa·s]
298.15 K | 23710
318.15 K | 3481

Clc1ccccc1 + CCCCCCCCCC
viscosity [mPa·s], 101 kPa
Conditions | x1 = 0.1146 | x1 = 0.1985 | x1 = 0.31 | x1 = 0.3792 | x1 = 0.4894 | x1 = 0.6146 | x1 = 0.6949 | x1 = 0.8073 | x1 = 0.9173
308.15 K | 0.7161 | 0.703 | 0.6849 | 0.6723 | 0.6588 | 0.6526 | 0.6521 | 0.6598 | 0.6691
313.15 K | 0.6733 | 0.6572 | 0.6458 | 0.6387 | 0.6287 | 0.624 | 0.6222 | 0.6228 | 0.6302
